One assay has as its target T1, recombinant BRD4 BD1 (Homo sapiens, UniProt O60885).
T1 construct: for recombinant BRD4 BD1 and BRD4 BD2 proteins
Kind of assay: Competitive fluorescence-polarization (FP) binding assay, BRD4 BD1. Also: probe 1.5 nM. The note with it: competitive FP assay; protein 10 nM, probe […]; read-out: IC50 (nM) BRD4 BD1. Summed up:
(§1)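 Buffer: 100 mM potassium phosphate, pH 6.5, 0.01% Triton X-100; compounds added in buffer with 40% ethylene glycol to preformed complex of fluorescent probe with BRD4 BD1 (10 nM final) or BD2 (6 nM final). After 30 min at room temperature, polarization read. IC50 from nonlinear fits of competition curves, with Ki.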

Another assay addresses T2, recombinant BRD4 BD2 (Homo sapiens, UniProt O60885).
T2 construct: for recombinant BRD4 BD1 and BRD4 BD2 proteins
Kind of assay: Competitive fluorescence-polarization (FP) binding assay, BRD4 BD2. Also: probe 1.5 nM. The note with it: competitive FP assay; protein 6 nM, probe […]; read-out: IC50 (nM) BRD4 BD2. Summed up:
as §1

In the next assay the test system is MOLM-13. Kind of assay: Cell growth inhibition, MOLM-13 leukemia cells (CellTiter-Glo). Type of assay: cell-based. The note with it: Homo sapiens, MOLM-13, 96 h; 4 days; read-out: IC50 (nM) MOLM-13 Cell Line (CellTiter-Glo assay). Summed up: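 Luminescent ATP-based viability (CellTiter-Glo, 10-20 min at room temperature) in compound-treated MOLM-13 cells; the half-maximal inhibitory concentration was calculated from the readout.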
(In general: ATP-based viability assays read luminescence as a measure of living cells.)

In the next assay the test system is MDA-MB-436. Kind of assay: Cell growth inhibition, MDA-MB-436 breast cancer cells (WST-8). Type of assay: cell-based. To be noted: Homo sapiens, MDA-MB-436, 96 h; 4 days; read-out: IC50 (nM) MDA-MB-436 Cell Line (WST assay). Summed up:
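IC50 was computed from WST-8-based cell counting in MDA-MB-436 cells, with absorbance read at 450 nm.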

The results in this text go back to patent US9580430B2, “9H-pyrimido[4,5-B]indoles and related analogs as BET bromodomain inhibitors” (THE REGENTS OF THE UNIVERSITY OF MICHIGAN, priority 2014, dated 2017).

By IC50 is commonly meant the concentration at which inhibition is half-maximal.

For the compound `COc1cc2c(cc1-c1c(C)noc1C)[nH]c1nc(C)nc(Nc3c(C)cnn3C3CC3)c12` [Cpd. No. 197, N-(1-cyclopropyl-4-methyl-1H-pyrazol-5-yl)-7-(3,5-dimethylisoxazol-4-yl)-6-methoxy-2-methyl-9H-pyrimido[4,5-b]indol-4-amine], the 50% inhibitory concentration (IC50) at recombinant BRD4 BD1 amounted to 70.1 nM; at recombinant BRD4 BD2, 69.9 nM; in the assay on MOLM-13 it was 357 nM; with MDA-MB-436 it was 511 nM.
Taken in the same sequence, the figures for `COc1cc2c(cc1-c1c(C)noc1C)[nH]c1nc(C)nc(Nc3c(C)cnn3C3CCC3)c12` [Cpd. No. 198, N-(1-cyclobutyl-4-methyl-1H-pyrazol-5-yl)-7-(3,5-dimethylisoxazol-4-yl)-6-methoxy-2-methyl-9H-pyrimido[4,5-b]indol-4-amine] were 6.9 nM, 3.6 nM, 25.7 nM and 58.7 nM.
On to `CCn1cc(Nc2nc(C)nc3[nH]c4cc(-c5c(C)noc5C)c(OC)cc4c23)c(C(C)C)n1` [Cpd. No. 199, 7-(3,5-dimethylisoxazol-4-yl)-N-(1-ethyl-3-isopropyl-1H-pyrazol-4-yl)-6-methoxy-2-methyl-9H-pyrimido[4,5-b]indol-4-amine], for which the IC50 at recombinant BRD4 BD1 is 13.3 nM; at recombinant BRD4 BD2, 14.5 nM; in the assay with MOLM-13, 30.5 nM; in the assay on MDA-MB-436 it was 67.9 nM.
In the case of `COc1cc2c(cc1-c1c(C)noc1C)[nH]c1nc(C)nc(Nc3cn(C)nc3C3CCC3)c12` [Cpd. No. 200, N-(3-cyclobutyl-1-methyl-1H-pyrazol-4-yl)-7-(3,5-dimethylisoxazol-4-yl)-6-methoxy-2-methyl-9H-pyrimido[4,5-b]indol-4-amine], the IC50 on recombinant BRD4 BD1 worked out at 10.9 nM; at recombinant BRD4 BD2 it was 5.9 nM; in the assay with MOLM-13, 25.4 nM; with MDA-MB-436, 40 nM.
For `COc1cc2c(cc1-c1c(C)noc1C)[nH]c1nc(C)nc(Nc3cccc4ncccc34)c12` [Cpd. No. 211, 7-(3,5-dimethylisoxazol-4-yl)-6-methoxy-2-methyl-N-(quinolin-5-yl)-9H-pyrimido[4,5-b]indol-4-amine] the same measures were 16 nM, 17 nM, 76 nM and 57 nM.
On to `COc1cc2c(cc1-c1c(C)noc1C)[nH]c1nc(C)nc(Nc3cccc(C)c3)c12` [Cpd. No. 212, 7-(3,5-dimethylisoxazol-4-yl)-6-methoxy-2-methyl-N-m-tolyl-9H-pyrimido[4,5-b]indol-4-amine], for which the 50% inhibitory concentration (IC50) on recombinant BRD4 BD1 was 18 nM; at recombinant BRD4 BD2, 8 nM; with MOLM-13, 103 nM; with MDA-MB-436 it was 112 nM.
Turning to `COc1cccc(Nc2nc(C)nc3[nH]c4cc(-c5c(C)noc5C)c(OC)cc4c23)c1` [Cpd. No. 213, 7-(3,5-dimethylisoxazol-4-yl)-6-methoxy-N-(3-methoxyphenyl)-2-methyl-9H-pyrimido[4,5-b]indol-4-amine], the concentration for half-maximal inhibition (IC50) at recombinant BRD4 BD1 worked out at 54 nM; on recombinant BRD4 BD2, 28 nM; in the assay with MOLM-13, 103 nM; in the assay with MDA-MB-436, 211 nM.
For the compound `COc1cc2c(cc1-c1c(C)noc1C)[nH]c1nc(C)nc(Nc3cccc(C(F)(F)F)c3)c12` [Cpd. No. 214, 7-(3,5-dimethylisoxazol-4-yl)-6-methoxy-2-methyl-N-(3-(trifluoromethyl)phenyl)-9H-pyrimido[4,5-b]indol-4-amine], the half-maximal inhibitory concentration (IC50) at recombinant BRD4 BD1 stood at 855 nM; on recombinant BRD4 BD2 it was 348 nM; in the assay on MOLM-13 it was 208 nM; in the assay on MDA-MB-436, 249 nM.
Taken in the same sequence, the figures for `COc1cc2c(cc1-c1c(C)noc1C)[nH]c1nc(C)nc(Nc3c(C)noc3C)c12` [Cpd. No. 215, N-(7-(3,5-dimethylisoxazol-4-yl)-6-methoxy-2-methyl-9H-pyrimido[4,5-b]indol-4-yl)-3,5-dimethylisoxazol-4-amine] were 128 nM, 57 nM, 318 nM and 360 nM.
For `CCc1cccc(Nc2nc(C)nc3[nH]c4cc(-c5c(C)noc5C)c(OC)cc4c23)c1` [Cpd. No. 216, 7-(3,5-dimethylisoxazol-4-yl)-N-(3-ethylphenyl)-6-methoxy-2-methyl-9H-pyrimido[4,5-b]indol-4-amine] the same measures were 19 nM, 35 nM, 220 nM and 292 nM.
For `COc1cc2c(cc1-c1c(C)noc1C)[nH]c1nc(C)nc(Nc3cccc(Cl)c3F)c12` [Cpd. No. 217, N-(3-chloro-2-fluorophenyl)-7-(3,5-dimethylisoxazol-4-yl)-6-methoxy-2-methyl-9H-pyrimido[4,5-b]indol-4-amine] the same measures were 165 nM, 68 nM, 498 nM and 1930 nM.
As to `COc1cc2c(cc1-c1c(C)noc1C)[nH]c1nc(C)nc(Nc3onc(C)c3C)c12` [Cpd. No. 219, N-(7-(3,5-dimethylisoxazol-4-yl)-6-methoxy-2-methyl-9H-pyrimido[4,5-b]indol-4-yl)-3,4-dimethylisoxazol-5-amine], the IC50 on recombinant BRD4 BD1 is 219 nM; on recombinant BRD4 BD2 it was 365 nM; in the assay on MOLM-13, 912 nM; in the assay with MDA-MB-436 it was 849 nM.
Taken in the same sequence, the figures for `COc1cc2c(cc1-c1c(C)noc1C)[nH]c1nc(C)nc(Nc3cccc4[nH]ccc34)c12` [Cpd. No. 220, 7-(3,5-dimethylisoxazol-4-yl)-N-(1H-indol-4-yl)-6-methoxy-2-methyl-9H-pyrimido[4,5-b]indol-4-amine] were 17 nM, 9 nM, 37 nM and 72 nM.
For `COc1cc2c(cc1-c1c(C)noc1C)[nH]c1nc(C)nc(Nc3cccc4cnccc34)c12` [Cpd. No. 221, 7-(3,5-dimethylisoxazol-4-yl)-N-(isoquinolin-5-yl)-6-methoxy-2-methyl-9H-pyrimido[4,5-b]indol-4-amine] the same measures were 49 nM, 57 nM, 189 nM and 209 nM.
For `COc1cc2c(cc1-c1c(C)noc1C)[nH]c1nc(C)nc(Nc3noc(C)c3C)c12` [Cpd. No. 222, N-(7-(3,5-dimethylisoxazol-4-yl)-6-methoxy-2-methyl-9H-pyrimido[4,5-b]indol-4-yl)-4,5-dimethylisoxazol-3-amine] the same measures were 183 nM, 276 nM, 629 nM and 731 nM.
On to `COc1cc2c(cc1-c1c(C)noc1C)[nH]c1nc(C)nc(Nc3cccc4ccncc34)c12` [Cpd. No. 223, 7-(3,5-dimethylisoxazol-4-yl)-N-(isoquinolin-8-yl)-6-methoxy-2-methyl-9H-pyrimido[4,5-b]indol-4-amine], for which the IC50 is 47 nM at recombinant BRD4 BD1, 55 nM at recombinant BRD4 BD2, 115 nM in the assay on MOLM-13 and 152 nM with MDA-MB-436.
In the case of `COc1cc2c(cc1-c1c(C)noc1C)[nH]c1nc(C)nc(Nc3cc(Cl)ccc3F)c12` [Cpd. No. 224, N-(5-chloro-2-fluorophenyl)-7-(3,5-dimethylisoxazol-4-yl)-6-methoxy-2-methyl-9H-pyrimido[4,5-b]indol-4-amine], the IC50 at recombinant BRD4 BD1 was found to be 105 nM; on recombinant BRD4 BD2, 33 nM; with MOLM-13 it was 192 nM; with MDA-MB-436 it was 740 nM.
